Measurements reported in patent US20240251788A1, “HERBICIDE/SAFENER COMBINATION BASED ON SAFENERS FROM THE CLASS OF SUBSTITUTED [(1,5-DIPHENYL-1H-1,2,4-TRIAZOL-3-YL)OXY]ACETIC ACIDS AND THEIR SALTS” (Bayer Aktiengesellschaft, priority 2021, published 2024).

How the values were obtained:
[1] = system: summer wheat crop plant (TRZAS; cv. Triso); experiment: Reduction in herbicide damage to summer wheat by safener, greenhouse post-emergence application, visual scoring; assay type: in vivo; parameters: key to Reduction in the damage by safener (difference): difference in % visual damage (0-100% scale vs untreated) due to safener
Protocol: (§1) The seeds of the crop plants to be treated are laid out in soil in woodfiber pots (diameter ˜ 7 cm), covered with soil and grown in a greenhouse under good conditions for germination and growth. The trial plants were treated at the early leaf stage (BBCH10-BBCH12).
The herbicides used (component B) were used in the following formulations: • B2.81: WP • B2.85: WP • B2.92: WP • Cinmethylin: EC • Clomazone: WP • Ethofumesate: WP • Flufenacet: SC • Pinoxaden: WP • Saflufenacil: WP • Bicyclopyrone: WP • Picloram: WP • Metazachlor: SC • Flumioxazin: WP • Glyphosate potassium salt: SL • Topramezone: WP
(§2) The dose of the respective herbicides was chosen here such that it causes an average degree of visually apparent damage (min. 20%, max. 75%) compared to untreated crop plants at the evaluation time on a control group of crop plants without safener treatment that were included in the same trial.
(§3) In the respective herbicide/safener combinations, the safeners (component A) in the form of wettable powders (WP) were added in the dose specified; in these cases, herbicide and safener are thus applied as a mixture.
(§4) Application was effected in each case on to the above-ground parts of the plant, at a water application rate corresponding to 300 l/ha and with addition of wetting agent (Mero, 1.5 l/h a).
In the applications that contained pinoxaden, bicyclopyrone or topramezone, the herbicidal effect was enhanced by additionally adding ammonium sulfate (2 kg/ha).
(§5) After application, the plants were cultivated under good growth conditions in a greenhouse. On account of the different mechanisms of action of the herbicides used, the damaging effect of the herbicides was fully manifested at different times depending on the herbicide, and this in turn forms the basis for assessment of the safener action in the mixtures. Therefore, the damage was scored visually, depending on the herbicide/mixture, between 11 and 21 days after application.
(§6) The damage effect was assessed visually on a scale of 0-100% by comparison with untreated control plants, and averaged over 2 repeats per treatment.

[2] = system: summer barley crop plant (HORVS: cv. Quench); experiment: Reduction in herbicide damage to summer barley by safener, greenhouse post-emergence application, visual scoring; assay type: in vivo; parameters: key to Reduction in the damage by safener (difference): difference in % visual damage, 0-100% scale vs untreated plants
Protocol: as §1
The herbicides used (component B) were used in the following formulations: • B2.81: WP • B2.85: WP • B2.92: WP • Clomazone: WP • Ethofumesate: WP • Flufenacet: SC • Fluroxypyr: EC • Saflufenacil: WP • Thiencarbazone-methyl: WP • Iodosulfuron-methyl-sodium: WP • Bifenox: WP • Glyphosate potassium salt: SL • Topramezone: WP
as §2, §3, §4
In the applications that contained pinoxaden or topramezone, the herbicidal effect was enhanced by additionally adding ammonium sulfate (2 kg/ha).
as §5, §6

[3] = summer barley (HORVS), herbicide B2.68 (thiencarbazone-methyl) 30 g a.i./ha + safener 100 g a.i./ha
[4] = summer barley (HORVS), herbicide B2.81 15 g a.i./ha + safener 100 g a.i./ha
[5] = summer barley (HORVS), herbicide B2.85 5 g a.i./ha + safener 100 g a.i./ha
[6] = summer barley (HORVS), herbicide B2.92 5 g a.i./ha + safener 100 g a.i./ha
[7] = summer barley (HORVS), herbicide B5.14 (clomazone) 200 g a.i./ha + safener 100 g a.i./ha
[8] = summer barley (HORVS), herbicide B5.21 (ethofumesate) 2000 g a.i./ha + safener 100 g a.i./ha
[9] = summer barley (HORVS), herbicide B6.4 (fluroxypyr) 500 g a.i./ha + safener 100 g a.i./ha
[10] = summer barley (HORVS), herbicide B9.10 (saflufenacil) 20 g a.i./ha + safener 100 g a.i./ha
[11] = summer wheat (TRZAS), herbicide B1.8 (pinoxaden) 200 g a.i./ha + safener 100 g a.i./ha
[12] = summer wheat (TRZAS), herbicide B2.81 15 g a.i./ha + safener 100 g a.i./ha
[13] = summer wheat (TRZAS), herbicide B2.85 5 g a.i./ha + safener 100 g a.i./ha
[14] = summer wheat (TRZAS), herbicide B2.92 5 g a.i./ha + safener 100 g a.i./ha
[15] = summer wheat (TRZAS), herbicide B5.14 (clomazone) 200 g a.i./ha + safener 100 g a.i./ha
[16] = summer wheat (TRZAS), herbicide B5.21 (ethofumesate) 2000 g a.i./ha + safener 100 g a.i./ha
[17] = summer wheat (TRZAS), herbicide B9.10 (saflufenacil) 10 g a.i./ha + safener 100 g a.i./ha
[18] = summer wheat (TRZAS), herbicide B9.10 (saflufenacil) 20 g a.i./ha + safener 100 g a.i./ha
[19] = summer wheat (TRZAS), herbicide dose 400 g a.i./ha, without safener

Cc1ccccc1CO[C@@H]1C[C@@]2(C(C)C)CC[C@]1(C)O2 (racemic) [Compound B5.13, cinmethylin, reference compound]
Damage to the plant by the herbicide (in %) ([1]; summer wheat (TRZAS), herbicide dose 500 g a.i./ha, without safener): 25%
Damage to the plant by the herbicide (in %) ([1]; summer wheat (TRZAS), herbicide dose 1000 g a.i./ha, without safener): 25%

C=C[C@]1(C(=O)N[C@H]2CO[C@@H](C(=O)OC)C2)CC(c2cc(F)cc(F)c2)=NO1 (relative stereo) [Compound B2.81, methyl (2R*,4R*)-4-[[(5S)-3-(3,5-difluorophenyl)-5-vinyl-4H-isoxazole-5-carbonyl]amino]tetrahydrofuran-2-carboxylate]
Damage to the plant by the herbicide (in %) ([2]; in vivo): 70%
Damage to the plant by the herbicide (in %) ([1]; in vivo): 70%

COC(=O)COc1nc(-c2ccc(Cl)cc2F)n(-c2ccc(Cl)cc2F)n1 [Compound A1, methyl {[1,5-bis(4-chloro-2-fluorophenyl)-1H-1,2,4-triazol-3-yl]oxy}acetate]
Reduction in the damage by safener (difference) [2, 3]: 30
Reduction in the damage by safener (in %) [2, 3]: 100%
Reduction in the damage by safener (difference) [2, 4]: 70
Reduction in the damage by safener (in %) [2, 4]: 100%
Reduction in the damage by safener (difference) [2, 5]: 50
Reduction in the damage by safener (in %) [2, 5]: 83%
Reduction in the damage by safener (difference) [2, 6]: 65
Reduction in the damage by safener (in %) [2, 6]: 100%
Reduction in the damage by safener (difference) [2, 7]: 30
Reduction in the damage by safener (in %) [2, 7]: 75%
Reduction in the damage by safener (difference) [2, 8]: 60
Reduction in the damage by safener (in %) [2, 8]: 100%
Reduction in the damage by safener (difference) [2, 9]: 20
Reduction in the damage by safener (in %) [2, 9]: 100%
Reduction in the damage by safener (difference) [2, 10]: 20
Reduction in the damage by safener (in %) [2, 10]: 50%
Reduction in the damage by safener (difference) [1, 11]: 25
Reduction in the damage by safener (in %) [1, 11]: 71%
Reduction in the damage by safener (difference) [1, 12]: 70
Reduction in the damage by safener (in %) [1, 12]: 100%
Reduction in the damage by safener (difference) [1, 13]: 60
Reduction in the damage by safener (in %) [1, 13]: 100%
Reduction in the damage by safener (difference) [1, 14]: 60
Reduction in the damage by safener (in %) [1, 14]: 100%
Reduction in the damage by safener (difference) [1, 15]: 20
Reduction in the damage by safener (in %) [1, 15]: 50%
Reduction in the damage by safener (difference) [1, 16]: 70
Reduction in the damage by safener (in %) [1, 16]: 100%
Reduction in the damage by safener (difference) [1, 17]: 15
Reduction in the damage by safener (in %) [1, 17]: 43%
Reduction in the damage by safener (difference) [1, 18]: 15
Reduction in the damage by safener (in %) [1, 18]: 38%

CCc1cc(C)cc(CC)c1-c1c(OC(=O)C(C)(C)C)n2n(c1=O)CCOCC2 [Compound B1.8, pinoxaden, reference compound]
Damage to the plant by the herbicide (in %) ([1]; summer wheat (TRZAS), herbicide dose 200 g a.i./ha, without safener): 35%

COc1nc(C)nc(NC(=O)NS(=O)(=O)c2cc(I)ccc2C(=O)O)n1 [Compound B2.34, iodosulfuron, reference compound]
Damage to the plant by the herbicide (in %) ([2]; in vivo): 45%

Cc1cccc(C)c1N(Cn1cccn1)C(=O)CCl [Compound B2.38, metazachlor, reference compound]
Damage to the plant by the herbicide (in %) ([1]; summer wheat (TRZAS), herbicide dose 4000 g a.i./ha, without safener): 40%

COc1nn(C(=O)NS(=O)(=O)c2c(C(=O)O)csc2C)c(=O)n1C [Compound B2.68, thiencarbazone, reference compound]
Damage to the plant by the herbicide (in %) ([2]; summer barley (HORVS), herbicide dose 30 g a.i./ha, without safener): 30%

C#CCN1C(=O)COc2cc(F)c(N3C(=O)C4=C(CCCC4)C3=O)cc21 [Compound B5.26, flumioxazin, reference compound]
Damage to the plant by the herbicide (in %) ([1]; summer wheat (TRZAS), herbicide dose 20 g a.i./ha, without safener): 60%

Nc1c(Cl)c(F)nc(OCC(=O)O)c1Cl [Compound B6.4, fluroxypyr, reference compound]
Damage to the plant by the herbicide (in %) ([2]; in vivo): 20%

Nc1c(Cl)c(Cl)nc(C(=O)O)c1Cl [Compound B6.5, picloram, reference compound]
Damage to the plant by the herbicide (in %) [1, 19]: 25%

COC(=O)c1cc(Oc2ccc(Cl)cc2Cl)ccc1[N+](=O)[O-] [Compound B8.6, bifenox, reference compound]
Damage to the plant by the herbicide (in %) ([2]; summer barley (HORVS), herbicide dose 600 g a.i./ha, without safener): 40%

bicyclopyrone [Compound B1.2, reference compound]
Damage to the plant by the herbicide (in %) [1, 19]: 60%
